We go through two compounds from patent publication US5549903A, “Microencapsulated composition containing chlorpyrifos or endosulfsan” (priority 1994, dated 1996).

One series concerns mice. Conditions: technical material; cited from earlier work.
A short description of series [1]: Stability of endosulfan to irradiation. Particulars: 100 hours at 310±5 nanometers and 475± nanometers. The series is classed as physicochemical. From the text: Details of the stability of chlorpyrifos are listed in Example 2.
The nature of series [2]: Stability of unprotected chlorpyrifos to UV/visible light. Format: physicochemical. Particulars: 68 hours. As for the experimental part:
Unprotected chlorpyrifos was irradiated by an ultraviolet/visible light lamp for 68 hours. The stability versus the wavelength of the light is summarized as follows: […]

Another series deals with rats. Conditions: technical chlorpyrifos; cited from earlier work.
Series [3] has as its system honey bees. Particulars: technical chlorpyrifos, comparison value; cited from earlier work.
The subject of series [4] is honey bees. Conditions: technical chlorpyrifos, comparison value; cited from earlier work. This is another data set of the same source.

For the compound `O=S1OCC2C(CO1)C1(Cl)C(Cl)=C(Cl)C2(Cl)C1(Cl)Cl` (stereo not drawn) [endosulfan, 6,7,8,9,10-hexachloro-1,5-5a,9a tetryhydro-6,9-methano-2,4,3-benzodioxathipia-3-oxide], the LD50 in the series with mice was 30 mg/kg. For the same compound, the decomposition after irradiation result in series [1] is recorded as “decomposed”.
Turning to `CCOP(=S)(OCC)Oc1nc(Cl)c(Cl)cc1Cl` [chlorpyrifos, O,O-diethyl-O-(3,5,6-trichloro-2-pyridyl)-phosphorathio-ate], the “Extent of Degradation” value in series [2] (313 ± 5 nm) is “Total degradation”; in series [2] (365 ± 5 nm), “Low degradation”; in series [2] (404 ± 5 nm), “Low degradation”; in series [2] (436 ± 5 nm), “Medium degradation”. The “LD50 (acute oral)” value in the series with rats is recorded as 168 mg/kg. Also, the LD50 contact with honey bees [3] is on record as 0.059 μ/bee. Also, the LD50 oral in the series with honey bees [4] is on record as 0.25 μg/bee.

As a reminder, the LD50 is the dose expected to kill half of the subjects tested.
